The target of one experiment is SOS1 (Homo sapiens (Human), UniProt Q07889). The experiment in a line: Ras-SOS interaction assay (HTRF), K-Ras G13D utilized. Format: binding. The note with it: K-Ras G13D, read-out: SOS1 IC50. From the text:
For example, the equilibrium interaction of human SOS1 (hSOS1) with human wildtype Kras or K-Ras mutant (e.g., hK-Ras G12C mutant, or hK-Ras G12C) can be assessed as a proxy or an indication for a subject compound's ability to inhibit SOS. Detection of such interaction is achieved by measuring homogenous time-resolved fluorescence resonance energy transfer (HTRF) from (i) a fluorescence resonance energy transfer (FRET) donor (e.g., antiGST-Europium) that is bound to GST-tagged K-Ras G12C to (ii) a FRET acceptor (e.g., anti-6His-XL665) bound to a His-tagged hSOS1.
A Ras working solution is prepared in assay buffer containing typically 10 nM of the protein construct (e.g., GST-tagged hK-Ras G12C) and 2 nM of the FRET donor (e.g., antiGST-Eu(K) from Cisbio, France). A SOS1 working solution is prepared in assay buffer containing typically 10 nM of the protein construct (e.g., His-hSOS1) and 10 nM of the FRET acceptor (e.g., anti-6His-XL665 from Cisbio, France). An inhibitor control solution is prepared in assay buffer containing 10 nM of the FRET acceptor without the SOS1 protein.
A fixed reaction mixture with or without test compound is transferred into a 384-well plate. Ras working solution is added to all wells of the test plate. SOS1 working solution is added to all wells except for those that are subsequently filled with the inhibitor control solution. […] The ratiometric data (i.e., emission 2 divided by emission 1) is used to calculate IC50 values against SOS1 using GraphPad Prism (GraphPad software).

Experiment [1] concerns NCI-H1975 (ATCC CRL-5908) cell line comprising an EGFR T790M L858R double mutation. The experiment in a line: EGFR-SOS cellular inhibition assay (CellTiter-Glo cell proliferation). Format: cell-based. The note with it: Homo sapiens, 120 h; NCI-H1975 cell proliferation, approximately 5 days; read-out: H1975 IC50.
Description: A CellTiter-Glo (CTG) luminescent based assay (Promega) is used to assess growth of the cells, as a measurement of the ability of the compounds herein to inhibit EGFR signaling in the cells. […] The day after plating, cells are treated with a dilution series (e.g., a 9 point 3-fold dilution series) of the compounds herein (e.g., approximately 125 μL final volume per well).

Each structure is given as a SMILES string. pIC50: −log10 of the molar value. Some results are limits rather than exact numbers.

Chain of SOS1 (Q07889 564-1049): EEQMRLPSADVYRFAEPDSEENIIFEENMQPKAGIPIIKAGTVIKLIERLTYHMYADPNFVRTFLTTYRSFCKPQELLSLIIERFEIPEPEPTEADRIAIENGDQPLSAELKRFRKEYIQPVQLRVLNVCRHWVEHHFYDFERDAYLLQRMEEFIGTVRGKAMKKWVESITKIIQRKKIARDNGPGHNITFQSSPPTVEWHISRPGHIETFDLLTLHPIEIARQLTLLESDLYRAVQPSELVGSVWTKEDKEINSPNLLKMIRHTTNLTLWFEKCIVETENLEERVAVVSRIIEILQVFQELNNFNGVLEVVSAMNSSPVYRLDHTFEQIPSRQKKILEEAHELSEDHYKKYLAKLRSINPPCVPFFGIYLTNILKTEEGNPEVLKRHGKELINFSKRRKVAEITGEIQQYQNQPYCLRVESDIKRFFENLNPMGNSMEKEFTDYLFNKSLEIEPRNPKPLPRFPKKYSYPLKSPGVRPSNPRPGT

Regarding `C[C@H]1Nc2ncnc3c2cc(C2CCS(=O)(=O)CC2)c(=O)n3CCCCCN2CCC(CC2)CCC(F)(F)c2cccc1c2F` [Compound 151, (3R)-1^6-(1,1-dioxidotetrahydro-2H-thiopyran-4-yl)-4^2,5,5-trifluoro-3-methyl-1^7,1^8-dihydro-2-aza-1(4,8)-pyrido[2,3-d]pyrimidina-8(4,1)-piperidina-4(1,3)-benzenacyclotridecaphan-1^7-one], the pIC50 is more than 7.00 at SOS1 and more than 6.00 in experiment [1].
For the molecule `CC(C)N1CCN(c2cc3c4ncnc3n(c2=O)CCCCCN2CCC(CC2)CCC(F)(F)c2cccc(c2)[C@@H](C)N4)CC1` [Compound 154, (3R)-5,5-difluoro-1^6-(4-isopropylpiperazin-1-yl)-3-methyl-1^7,1^8-dihydro-2-aza-1(4,8)-pyrido[2,3-d]pyrimidina-8(4,1)-piperidina-4(1,3)-benzenacyclotridecaphan-1^7-one], the pIC50 is more than 7.00 at SOS1 and more than 6.00 in experiment [1].
For `C[C@H]1Nc2ncnc3c2cc(C2CCS(=O)(=O)CC2)c(=O)n3CCCCCCCN2C3CCC2CC(C3)C(F)(F)c2cccc1c2F` [Compound 113, (11S,15R,4R)-6^6-(1,1-dioxidotetrahydro-2H-thiopyran-4-yl)-32,2,2-trifluoro-4-methyl-6^7,6^8-dihydro-1^8,5-diaza-6(4,8)-pyrido[2,3-d]pyrimidina-1(3,8)-bicyclo[3.2.1]octana-3(1,3)-benzenacyclotridecaphan-6^7-one], the results for the pIC50 (at SOS1; in experiment [1]) were more than 7.00 and more than 6.00, respectively.
For `C[C@H]1Nc2ncnc3c2cc(C2CCS(=O)(=O)CC2)c(=O)n3CCCOCCCN2CCC(CC2)CC(F)(F)c2cccc1c2F` [Compound 191, (3R)-1^6-(1,1-dioxidotetrahydro-2H-thiopyran-4-yl)-4^2,5,5-trifluoro-3-methyl-1^7,1^8-dihydro-11-oxa-2-aza-1(4,8)-pyrido[2,3-d]pyrimidina-7(4,1)-piperidina-4(1,3)-benzenacyclotetradecaphan-1^7-one], the figures for the pIC50 (at SOS1; in experiment [1]) were more than 7.00 and more than 6.00, respectively.
Turning to `C[C@H]1Nc2ncnc3c2cc(C2(C#N)CC2)c(=O)n3CCCCn2cc(nn2)CN2CCC(CC2)C(F)(F)c2cccc1c2F` [Compound 126, 1-((6R,Z)-5^2,4,4-trifluoro-6-methyl-8^7-oxo-8^7,8^8-dihydro-1^1H-7-aza-8(4,8)-pyrido[2,3-d]pyrimidina-3(1,4)-piperidina-1(4,1)-triazola-5(1,3)-benzenacyclododecaphane-8^6-yl)cyclopropane-1-carbonitrile], the pIC50 on SOS1 was more than 7.00; in experiment [1] it was more than 6.00.
In the case of `C[C@H]1Nc2ncnc3c2cc(C2(C#N)CC2)c(=O)n3CCCCNC(=O)CN2CCC(CC2)C(F)(F)c2cccc1c2` [Compound 124, 1-((4R)-2,2-difluoro-4-methyl-6^7,12-dioxo-6^7,6^8-dihydro-5,11-diaza-6(4,8)-pyrido[2,3-d]pyrimidina-1(4,1)-piperidina-3(1,3)-benzenacyclotridecaphane-6^6-yl)cyclopropane-1-carbonitrile], the pIC50 at SOS1 is more than 7.00; in experiment [1], more than 6.00.
In the same order, the values of `C[C@H]1Nc2ncnc3c2cc(C2(C#N)CC2)c(=O)n3CC(=O)NCCC[C@H](C)N2CCC(CC2)C(F)(F)c2cccc1c2F` [Compound 98, 1-((4R,13S)-3^2,2,2-trifluoro-4,13-dimethyl-6^7,8-dioxo-6^7,6^8-dihydro-5,9-diaza-6(4,8)-pyrido[2,3-d]pyrimidina-1(4,1)-piperidina-3(1,3)-benzenacyclotridecaphane-6^6-yl)cyclopropane-1-carbonitrile] are more than 7.00 and more than 6.00.
On to `C[C@H]1Nc2ncnc3c2cc(C2CCS(=O)(=O)CC2)c(=O)n3CCCCn2cc(nn2)CN2CCC(CC2)C(F)(F)c2cccc1c2` [Compound 160, (6R,Z)-8^6-(1,1-dioxidotetrahydro-2H-thiopyran-4-yl)-4,4-difluoro-6-methyl-8^7,8^8-dihydro-1^1H-7-aza-8 (4,8)-pyrido[2,3-d]pyrimidina-3(1,4)-piperidina-1(4,1)-triazola-5(1,3)-benzenacyclododecaphan-8^7-one], for which the pIC50 at SOS1 is more than 7.00; in experiment [1] it was more than 6.00.

These data come from patent US20230339952A1, “MACROCYCLIC HETEROCYCLES AND USES THEREOF” (Kumquat Biosciences Inc., priority 2022, published 2023).
